The record followed here is patent publication US7745450B2, “Pyrazolo[4,3-d]pyrimidines, processes for their preparation and methods for therapy” (Institute of Experimental Botany, priority 2002, dated 2010).

Each structure is given as a SMILES string. Read-outs that look alike come from different tables or passages of the source.

One test deals with IκB-α kinase. The test is described as follows: IκB-α kinase inhibition, in vitro kinase assay. Type of test: biochemical.
The next test deals with cdk1/cyclin B (CDC2) (Homo sapiens, UniProt P06493). In words: CDK inhibition assay, cdk1/cyclin B (CDC2) kinase, histone phosphorylation. Type of test: biochemical. The procedure, abridged:
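Human cdk1/cyclin B activity measured with 1 mg/ml histone substrate, 15 μM ATP plus [γ-32P]ATP, in HEPES pH 7.4 buffer with 10 mM MgCl2. Phosphorylation quantified by phosphorimaging; activity expressed as % of maximum, IC50 from dose-response curves by graphic analysis.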

Test [1] relates to Cytokinin-dependent tobacco callus Nicotiana tabacum L. cv. Wisconsins 38. The test is described as follows: Tobacco callus bioassay for cytotoxicity (herbicidal activity). It counts as cell-based. The note with it: Nicotiana tabacum, 672 h. The procedure: The novel compounds have also been tested in tobacco callus bioassay for cytotoxicity (herbicidal activity) and induction of cell death. The compounds to be tested were dissolved in dimethylsulfoxide (DMSO) and the solution brought up to 10^−3 M with distilled water. […] Cytokinin-dependent tobacco callus Nicotiana tabacum L. cv. Wisconsins 38 Murashige-Skoog medium, containing per 1 liter: 4 μmol nicotinic acid, 2.4 μmol pyridoxine hydrochloride, 1.2 μmol thiamine, 26.6 μmol glycine, 1.37 μmol glutamine, 1.8 μmol myo.inositol, 30 g of sucrose, 8 g of agar, […] α-naphthylacetic acid and 0.5 μmol 6-benzylaminopurine. Sub cultivation was carried out every three weeks. Fourteen days before the bioassay, the callus tissue was transferred to the media without 6-benzylaminopurine. Compounds were tested with two different concentrations of 6-benzylaminopurine (10^−5 M and 10^−6 M). Inhibitory growth activity was determined from the increase in fresh callus weight after four weeks of cultivation. Five replicates were prepared for each concentration tested and the entire test was repeated at least twice.

[2] abbreviates: read-out: 10^−5 M BAP IC50, 10^−5 M 6-benzylaminopurine, four weeks.
Setting [3] is: read-out: 10^−6 M BAP IC50, 10^−6 M 6-benzylaminopurine, four weeks.

Sequence of cdk1/cyclin B (CDC2) (P06493 whole entry, species assumed): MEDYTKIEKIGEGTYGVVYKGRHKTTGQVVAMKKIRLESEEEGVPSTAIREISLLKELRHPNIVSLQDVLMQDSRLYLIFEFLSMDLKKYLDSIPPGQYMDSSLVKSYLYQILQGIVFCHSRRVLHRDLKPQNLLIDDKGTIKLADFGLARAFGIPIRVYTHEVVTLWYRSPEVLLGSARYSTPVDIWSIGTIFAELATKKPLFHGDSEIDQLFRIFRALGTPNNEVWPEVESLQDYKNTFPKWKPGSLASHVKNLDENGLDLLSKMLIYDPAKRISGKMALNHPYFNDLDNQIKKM
Sequence of cdk1/cyclin B (CDC2) (P14635 whole entry partner, species assumed): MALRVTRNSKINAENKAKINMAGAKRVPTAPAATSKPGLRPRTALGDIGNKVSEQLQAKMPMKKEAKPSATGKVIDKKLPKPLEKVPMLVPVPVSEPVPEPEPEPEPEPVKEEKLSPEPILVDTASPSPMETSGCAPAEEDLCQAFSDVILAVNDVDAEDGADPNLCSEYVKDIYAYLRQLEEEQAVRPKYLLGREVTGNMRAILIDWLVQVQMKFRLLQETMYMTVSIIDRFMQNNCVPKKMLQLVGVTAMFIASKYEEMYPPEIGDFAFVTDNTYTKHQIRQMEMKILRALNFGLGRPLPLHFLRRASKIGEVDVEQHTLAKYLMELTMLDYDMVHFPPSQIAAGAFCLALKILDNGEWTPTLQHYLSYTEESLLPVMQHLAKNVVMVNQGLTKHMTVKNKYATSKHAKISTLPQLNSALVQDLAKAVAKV

In the case of `CC(C)c1n[nH]c2c(NCc3ccc(Cl)c(N)c3)nc(N[C@@H](CO)C(C)C)nc12`, the IC50 (commonly the concentration that gives 50% inhibition) against IκB-α kinase is 3 nM; at cdk1/cyclin B (CDC2), 2 nM; in test [1] (setting [2]) it was greater than 50000 nM; in test [1] (setting [3]), 19400 nM.
For `CC(C)c1n[nH]c2c(Nc3ccc(O)c(C(=O)O)c3)nc(N[C@@H](CO)C(C)C)nc12`, in that order: 1 nM, 0.4 nM, 18000 nM and 1200 nM.
Regarding `CC(C)c1n[nH]c2c(Nc3cccc(Cl)c3)nc(NCCCN)nc12`, the IC50 at IκB-α kinase was 80 nM; at cdk1/cyclin B (CDC2), 20 nM; in test [1] (setting [2]), greater than 50000 nM; in test [1] (setting [3]) it was 45000 nM.
For `CC(=O)Oc1ccccc1CNc1nc(N[C@@H](CO)C(C)C)nc2c(C(C)C)n[nH]c12`, in that order: 12 nM, 6 nM, 38000 nM and 4200 nM.
As for `CC[C@H](CO)Nc1nc(NCc2cccc(OC)c2O)c2[nH]nc(C(C)C)c2n1`, the IC50 against IκB-α kinase is 12 nM; at cdk1/cyclin B (CDC2), 4 nM; in test [1] (setting [2]) it was greater than 50000 nM; in test [1] (setting [3]), 14800 nM.
For `CC(C)c1n[nH]c2c(Nc3ccc(Cl)c(C(=O)O)c3)nc(N[C@@H](CO)C(C)C)nc12`, in that order: 2 nM, 1 nM, greater than 50000 nM and 9600 nM.
The matching figures for `Cc1n[nH]c2c(NCc3ccccc3)nc(N[C@@H](CO)C(C)C)nc12`: 20 nM, 10 nM, greater than 50000 nM and 28000 nM.
The matching figures for `CC[C@H](CO)Nc1nc(Nc2cc(N)cc(Cl)c2)c2[nH]nc(C(C)C)c2n1`: 20 nM, 4 nM, 36000 nM and 2800 nM.
As for `CC[C@H](CO)Nc1nc(NCc2ccccc2OC(C)=O)c2[nH]nc(C(C)C)c2n1`, the IC50 on IκB-α kinase stood at 200 nM; at cdk1/cyclin B (CDC2), 100 nM; in test [1] (setting [2]), 45000 nM; in test [1] (setting [3]) it was 12400 nM.
The matching figures for `CC[C@H](CO)Nc1nc(Nc2ccc(N)c(Cl)c2)c2[nH]nc(C(C)C)c2n1`: 9 nM, 2 nM, 48000 nM and 8700 nM.
The matching figures for `CC[C@H](CO)Nc1nc(Nc2ccc(Cl)cc2)c2[nH]nc(C(C)C)c2n1`: 9 nM, 3 nM, 35000 nM and 3900 nM.
As to `CC[C@H](CO)Nc1nc(Nc2ccc(O)c(C(=O)O)c2)c2[nH]nc(C(C)C)c2n1`, the IC50 is 30 nM at IκB-α kinase, 10 nM against cdk1/cyclin B (CDC2), greater than 50000 nM in test [1] (setting [2]) and greater than 50000 nM in test [1] (setting [3]).
For `CC(C)c1n[nH]c2c(NCc3c(N)cccc3Cl)nc(N[C@@H](CO)C(C)C)nc12`, the IC50 stood at 2 nM against IκB-α kinase, 0.9 nM against cdk1/cyclin B (CDC2), 38000 nM in test [1] (setting [2]) and 3700 nM in test [1] (setting [3]).
Take `CC(=O)Oc1cccc(CNc2nc(N[C@@H](CO)C(C)C)nc3c(C(C)C)n[nH]c23)c1`: the IC50 came to 60 nM against IκB-α kinase, 20 nM on cdk1/cyclin B (CDC2), 36000 nM in test [1] (setting [2]) and 8500 nM in test [1] (setting [3]).
The matching figures for `Cc1n[nH]c2c(NCc3ccccc3)nc(NC3CCCCC3N)nc12` (centres unmarked): 90 nM, 30 nM, greater than 50000 nM and 48000 nM.
With `CC(C)c1n[nH]c2c(NCc3ccccc3)nc(NC3CCCCC3N)nc12` (centres unmarked), the 50% inhibitory concentration (IC50) against IκB-α kinase was 20 nM; against cdk1/cyclin B (CDC2) it was 10 nM; in test [1] (setting [2]), greater than 50000 nM; in test [1] (setting [3]), 36000 nM.
As for `CC(C)c1n[nH]c2c(NCc3ccccc3)nc(N[C@@H](CO)C(C)C)nc12`, the IC50 against IκB-α kinase is 10 nM; against cdk1/cyclin B (CDC2) it was 4 nM; in test [1] (setting [2]), greater than 50000 nM; in test [1] (setting [3]) it was 14000 nM.
The matching figures for `CC(C)c1n[nH]c2c(Nc3ccccc3)nc(N[C@@H](CO)C(C)C)nc12`: 3 nM, 1 nM, 42000 nM and 4800 nM.
For `CC(C)c1n[nH]c2c(Nc3ccc(N)c(Cl)c3)nc(N[C@@H](CO)C(C)C)nc12`, in that order: 3 nM, 2 nM, 16000 nM and 900 nM.
Turning to `CC[C@H](CO)Nc1nc(NCc2ccccc2)c2[nH]nc(C)c2n1`, the IC50 against IκB-α kinase is 300 nM; against cdk1/cyclin B (CDC2), 100 nM; in test [1] (setting [2]), greater than 50000 nM; in test [1] (setting [3]), 37000 nM.
The matching figures for `CC[C@H](CO)Nc1nc(Nc2ccc(C(=O)O)c(Cl)c2)c2[nH]nc(C(C)C)c2n1`: 4 nM, 2 nM, greater than 50000 nM and 12800 nM.
The matching figures for `Cc1n[nH]c2c(NCc3ccccc3)nc(NCCN)nc12` [2-aminoethylamino; benzylamino; methyl]: 5000 nM, 2000 nM, greater than 50000 nM and greater than 50000 nM.
For `CC[C@H](CO)Nc1nc(NCc2c(N)cccc2Cl)c2[nH]nc(C(C)C)c2n1`, in that order: 3.5 nM, 12 nM, greater than 50000 nM and 29700 nM.
As to `CC[C@H](CO)Nc1nc(Nc2ccc(Cl)c(N)c2)c2[nH]nc(C(C)C)c2n1`, the IC50 is 13 nM at IκB-α kinase, 4 nM on cdk1/cyclin B (CDC2), 26000 nM in test [1] (setting [2]) and 1500 nM in test [1] (setting [3]).
For `COc1cccc(CNc2nc(N[C@@H](CO)C(C)C)nc3c(C(C)C)n[nH]c23)c1O`, in that order: 15 nM, 6 nM, greater than 50000 nM and 21600 nM.
For `CC[C@H](CO)Nc1nc(NCc2ccccc2)c2[nH]nc(C(C)C)c2n1`, in that order: 30 nM, 10 nM, greater than 50000 nM and 28000 nM.
The matching figures for `CC[C@H](CO)Nc1nc(NCc2ccc(Cl)c(N)c2)c2[nH]nc(C(C)C)c2n1`: 24 nM, 80 nM, 25700 nM and 1300 nM.
Turning to `CC(C)c1n[nH]c2c(NCc3cccc(Cl)c3O)nc(N[C@@H](CO)C(C)C)nc12`, the IC50 against IκB-α kinase was 4 nM; against cdk1/cyclin B (CDC2), 2 nM; in test [1] (setting [2]) it was greater than 50000 nM; in test [1] (setting [3]), 9400 nM.
For `CC(C)c1n[nH]c2c(NCc3ccc(Cl)c(N)c3N)nc(N[C@@H](CO)C(C)C)nc12`, in that order: 40 nM, 20 nM, 15600 nM and 400 nM.
The matching figures for `CC[C@H](CO)Nc1nc(Nc2ccc(Br)cc2)c2[nH]nc(C(C)C)c2n1`: 10 nM, 2 nM, 38000 nM and 4300 nM.
The matching figures for `Cc1n[nH]c2c(NCc3ccccc3)nc(NCCCN)nc12` [3-aminopropylamino; benzylamino; methyl]: 400 nM, 200 nM, greater than 50000 nM and 45000 nM.
Regarding `Cc1n[nH]c2c(NCc3ccccc3)nc(NC3CCC(N)CC3)nc12` (centres unmarked), the IC50 was 50 nM on IκB-α kinase, 20 nM against cdk1/cyclin B (CDC2), greater than 50000 nM in test [1] (setting [2]) and 43000 nM in test [1] (setting [3]).
The matching figures for `CC[C@H](CO)Nc1nc(NCc2cccc(OC(C)=O)c2)c2[nH]nc(C(C)C)c2n1`: 400 nM, 70 nM, greater than 50000 nM and 28700 nM.
For `CC(C)c1n[nH]c2c(Nc3cccc(Cl)c3)nc(NC3CCCCC3N)nc12` (centres unmarked), in that order: 12 nM, 4 nM, greater than 50000 nM and 28000 nM.
The matching figures for `CC[C@H](CO)Nc1nc(NCc2cccc(Cl)c2O)c2[nH]nc(C(C)C)c2n1`: 12 nM, 7 nM, 46000 nM and 6700 nM.
Regarding `CC[C@H](CO)Nc1nc(Nc2ccc(Cl)c(C(=O)O)c2)c2[nH]nc(C(C)C)c2n1`, the IC50 was determined as 2 nM at IκB-α kinase, 1 nM against cdk1/cyclin B (CDC2), 28000 nM in test [1] (setting [2]) and 1500 nM in test [1] (setting [3]).
`CC(C)c1n[nH]c2c(Nc3cc(N)cc(Cl)c3)nc(N[C@@H](CO)C(C)C)nc12`: the IC50 was 15 nM on IκB-α kinase, 8 nM on cdk1/cyclin B (CDC2), 38000 nM in test [1] (setting [2]) and 4200 nM in test [1] (setting [3]).
The matching figures for `CC(C)c1n[nH]c2c(Nc3ccc(Br)cc3)nc(N[C@@H](CO)C(C)C)nc12`: 3 nM, 2 nM, greater than 50000 nM and greater than 50000 nM.
